Laboratory results from ChEMBL document CHEMBL5321224, “Antimicrobial peptides: Structure, mechanism, and modification” (2023).

Tests used:
Assay type in all cases: functional
Pseudomonas aeruginosa [1] = test: Antimicrobial activity against Pseudomonas aeruginosa KCTC 1637 measured after 18 hrs
Escherichia coli = test: Antimicrobial activity against Escherichia coli ATCC 33694 measured after 18 hrs
Pseudomonas aeruginosa [2] = test: Antimicrobial activity against Pseudomonas aeruginosa measured after 18 hrs

Substance | LD (Pseudomonas aeruginosa [1]) [µM] | LD (Escherichia coli) [µM] | LD (Pseudomonas aeruginosa [2]) [µM]
H-KWKKLLKKPLLKKLLKKL-NH2 | 0.78 | – | –
H-KWKLFKKIGIGKFLHSAKKF-NH2 | – | 6.25 | 1.56
